ChEMBL document CHEMBL1201862, “PubChem BioAssay data set” (2004)
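The compound was tested at five concentrations on cells cultured in 96-well plates, with a 48-hour exposure period. GI50: concentration for 50% inhibition of growth.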 Activity calls are given as the source filed them. Rule as the data show it: active = GI50 up to about 1.1 µM and inactive = higher.

Assays:
Test in all cases: NCI anticancer screen, dose series, 48 h
[1] = test system: UACC-257
[2] = test system: UACC-62
[3] = test system: MOLT-4
[4] = test system: MDA-N
[5] = test system: HOP-92
[6] = test system: U-251
[7] = test system: DU-145
[8] = test system: SK-MEL-28
[9] = test system: K562
[10] = test system: UO-31
[11] = test system: Hs-578T
[12] = test system: OVCAR-4
[13] = test system: SK-MEL-5
[14] = test system: HCC 2998
[15] = test system: SF-539
[16] = test system: HL-60
[17] = test system: NCI-H460

Measured: GI50

CC(=O)C(=N\Nc1ccc(Cl)cc1)/C(C)=N/c1ccc(C)cc1
inactive: [1] 53.2 µM | [2] 49.1 µM | [3] 16.7 µM | [4] 31.9 µM | [5] 16.6 µM | [6] 31.6 µM | [7] 30.8 µM | [8] 48.8 µM | [9] 33 µM | [10] 30.1 µM | [11] 44.4 µM | [12] > 100 µM | [13] 19 µM

O=C1c2c[nH]nc2C(c2ccccc2)N1c1ccccc1 (stereo unspecified)
inactive: [1] > 10 µM | [2] > 10 µM | [14] > 10 µM | [3] > 10 µM | [4] > 10 µM | [5] > 10 µM | [15] > 10 µM | [6] > 10 µM | [7] > 10 µM | [8] > 10 µM | [16] > 10 µM | [10] > 10 µM | [11] > 10 µM | [12] > 10 µM | [13] > 10 µM | [17] > 10 µM

CCN(CC)CCC(=O)c1ccc(Oc2ccc(F)cc2)cc1
inactive: [1] 17.8 µM | [2] 17.9 µM | [14] 20 µM | [3] 20.2 µM | [4] 18 µM | [5] 18.3 µM | [15] 17.3 µM | [6] 17.1 µM | [7] 23.8 µM | [8] 16.4 µM | [9] 38.3 µM | [11] 24.2 µM | [12] 39.4 µM

NCCN1C(=O)c2ccccc2C1(O)c1ccc(Cl)cc1 (stereo unspecified)
inactive: [1] 17.1 µM | [2] 16.4 µM | [3] 17.3 µM | [4] 18.2 µM | [5] 10.4 µM | [15] 21.6 µM | [6] 16.1 µM | [7] 33.9 µM | [8] 17.6 µM | [16] 52.8 µM | [9] 19.7 µM | [11] 16.2 µM | [12] 28.5 µM | [13] 16.4 µM | [17] 16.4 µM

CC(=O)O[C@H]1C[C@H]2C(=S)Nc3ccccc3C(=S)N2C1
inactive: [1] > 100 µM | [2] > 100 µM | [14] > 100 µM | [3] > 100 µM | [4] > 100 µM | [5] > 100 µM | [6] > 100 µM | [7] > 100 µM | [8] > 100 µM | [9] > 100 µM | [10] > 100 µM | [11] > 100 µM | [12] > 100 µM | [13] > 100 µM | [17] > 100 µM

O=C1CCCC(=O)N1n1c(Cc2ccccc2)n[nH]c1=O
inactive: [1] > 100 µM | [2] > 100 µM | [3] > 100 µM | [4] > 100 µM | [5] > 100 µM | [6] > 100 µM | [7] > 100 µM | [8] > 100 µM | [16] > 100 µM | [9] > 100 µM | [10] > 100 µM | [11] > 100 µM | [12] > 100 µM | [13] > 100 µM

CC(=O)OCC1OC(Sc2nc(-c3ccccc3)c(C#N)c(=O)n2C2OC(COC(C)=O)C(OC(C)=O)C(OC(C)=O)C2OC(C)=O)C(OC(C)=O)C(OC(C)=O)C1OC(C)=O (stereo unspecified)
inactive: [1] > 100 µM | [2] > 100 µM | [14] 8.11 µM | [3] > 100 µM | [4] > 100 µM | [5] > 100 µM | [15] > 100 µM | [6] > 100 µM | [7] > 100 µM | [8] > 100 µM | [9] 32.2 µM | [10] > 100 µM | [11] > 100 µM | [13] > 100 µM | [17] > 100 µM
